Laboratory results: US7799800B2, “Lipid-modified immune response modifiers” (3M Innovative Properties Company, priority 2003, dated 2010)

melting point	Structure (SMILES)
80 to 83 °C	CCCCCCCCCCCCCCCCCC(=O)NCCOCCn1c(CCOC)nc2c(N)nc3ccccc3c21 [Example 2, N-(2-{2-[4-amino-2-(2-methoxyethyl)-1H-imidazo[4,5-c]quinolin-1-yl]ethoxy}ethyl)octadecanamide]
80 to 83 °C	CCCCCCCCCCCC(=O)NCCOCCn1c(CCOC)nc2c(N)nc3ccccc3c21 [Example 3, N-(2-{2-[4-amino-2-(2-methoxyethyl)-1H-imidazo[4,5-c]quinolin-1-yl]ethoxy}ethyl)dodecanamide]
85 to 87 °C	CCCCCCCCCCCCCC(=O)NCCOCCn1c(CCOC)nc2c(N)nc3ccccc3c21 [Example 4, N-(2-{2-[4-amino-2-(2-methoxyethyl)-1H-imidazo[4,5-c]quinolin-1-yl]ethoxy}ethyl)tetradecanamide]
